In the oligonucleotide strings, read from the 5' end, every base follows the letter of its sugar. An asterisk marks phosphorothioate; unmarked linkages are phosphodiester. Other units and linkages are bracketed, terminal groups are in braces. A string of capitals states the bases alone. e = 2'-O-(2-methoxyethyl) (MOE); [5mC] = 5-methylcytosine; d = 2'-deoxy (DNA)
How the values were obtained:
B16-F10 cells = assay: Cell cycle assay in B16-F10 cells; assay type: cell-based, mouse; details: 150 nM, 48 hours, relative to untreated control
Protocol: BJ cells were routinely cultured in MEM high glucose with 2 mM L-glutamine and Earle's BSS adjusted to contain 1.5 g/L sodium bicarbonate and supplemented with 10% fetal bovine serum, 0.1 mM non-essential amino acids and 1.0 mM sodium pyruvate (all media and supplements from Invitrogen Life Technologies, Carlsbad, Calif.). B16-F10 cells were routinely cultured in DMEM high glucose (Invitrogen Life Technologies, Carlsbad, Calif.) supplemented with 10% fetal bovine serum (Invitrogen Life Technologies, Carlsbad, Calif.). T47D cells were cultured in DMEM High glucose media (Invitrogen Life Technologies, Carlsbad, Calif.) supplemented with 10% fetal bovine serum. […] Cells were plated on collagen-coated 24-well plates (Falcon-Primaria #3047, BD Biosciences, Bedford, Mass.) at approximately 50,000 cells per well and allowed to attach to wells overnight.
In further studies, additional cell lines were treated with oligomeric compounds targeted against miRNAs to assess the effects of each oligomeric compound on cell cycling. BJ, B16, T47D, and HeLa cells were cultured and transfected as described above. […] T47Dp53 cells are T47D cells that have been transfected with and selected for maintenance of a plasmid that expresses a wildtype copy of the p53 gene (for example, pCMV-p53; Clontech, Palo Alto, Calif.), using standard laboratory procedures. BJ cells were treated with 200 nM of each oligomeric compound, and T47D, T47Dp53, HeLa, and B16 cells were treated with 150 nM of each oligomeric compound. The human foreskin fibroblast BJ cell line represents a non-cancer cell line, while HeLa, T47D, T47Dp53 cells and the mouse melanoma cell line B16-F10 represent cancerous cell lines. For comparison, oligomeric compounds ISIS 183891 (SEQ ID NO: 847) and ISIS 285717 ([…]; herein incorporated as SEQ ID NO: 857), both targeting the kinesin-like 1/Eg5 mRNA, involved in cell cycling, were used as positive controls. The random-mer ISIS 29848 was used as a negative control. Additionally, the oligomeric compounds ISIS Number 25690 ([…]; herein incorporated as SEQ ID NO: 858) and ISIS Number 25691 ([…]; herein incorporated as SEQ ID NO: 859), targeted to nucleotides 3051-3070 and 3085-3104, respectively, of the mRNA encoding the Drosha RNase III (GenBank Accession NM_013235.2, incorporated herein as SEQ ID NO: 860) were also tested. ISIS Number 25690 and ISIS Number 25691 are 5-10-52′-MOE gapmer compounds, 20 nucleotides in length, with phosphorothioate internucleoside linkages throughout the oligomeric compound. All cytidine residues are 5-methylcytidines. Transfections were performed using the methods described herein. Cells were prepared for flow cytometry 48-hours after oligonucleotide treatment. Results of these studies are shown in Table 35, where data are expressed as percentage of cells in each phase relative to the untreated control cells in that phase.

[1] = system: preadipocytes / differentiating adipocytes; assay: Adipocyte differentiation assay, markers taken together; assay type: cell-based, human; details: for expression levels of markers of adipocyte differentiation (TG, leptin, aP2, HSL, Glut4, PPARγ): preadipocytes, 250 nM, day nine post-transfection, relative to ISIS-29848; for expression of the adipocyte differentiation markers, compounds targeting mir-143 miRNA or pri-miRNA compared: preadipocytes (Table 20)

Row | Substance | % cells in cell cycle phase G1 (B16-F10 cells) | % cells in cell cycle phase G2/M (B16-F10 cells) | % cells in cell cycle phase S (B16-F10 cells) | % cells in cell cycle phase aneuploid (B16-F10 cells) | % cells in cell cycle phase subG1 (B16-F10 cells) | expression levels of markers of adipocyte differentiation (TG, leptin, aP2, HSL, Glut4, PPARγ) [1] | expression of all five markers of differentiation, dose response ([1]; differentiating adipocytes, 50, 100, 200 and 300 nM, 24 hours) | expression of the adipocyte differentiation markers, compounds targeting mir-143 miRNA or pri-miRNA compared [1] | expression of the adipocyte differentiation markers, compounds targeting mir-143 miRNA or pri-miRNA compared ([1]; listed as ISIS 340972)
1 | 327902 (antisense eG*eG*e[5mC]*eT*eG*eT*e[5mC]*eA*eA*eT*eT*e[5mC]*eA*eT*eA*eG*eG*eT*e[5mC]*eA*eG) [compound 327902] | 112% | 98% | 88% | 101% | 151% | – | – | – | –
2 | 327905 (antisense e[5mC]*eA*eG*eA*e[5mC]*eT*e[5mC]*e[5mC]*eG*eG*eT*eG*eG*eA*eA*eT*eG*eA*eA*eG*eG*eA) [compound 327905] | 107% | 106% | 89% | 94% | 142% | – | – | – | –
3 | 327933 (antisense eA*eA*eG*eG*eG*eA*eT*eT*e[5mC]*e[5mC]*eT*eG*eG*eG*eA*eA*eA*eA*e[5mC]*eT*eG*eG*eA*e[5mC]) [compound 327933] | 109% | 116% | 84% | 130% | 104% | – | – | – | –
4 | 328759 (antisense eG*eA*eG*eG*eG*dA*dT*dT*dG*dT*dA*dT*dG*dA*dA*e[5mC]*eA*eT*e[5mC]*eT) [compound 328759] | 104% | 110% | 91% | 126% | 132% | – | – | – | –
5 | ACTTTCGGTTATCTAGCTTTA [ISIS 327892] (chemistry not given here) [uniform 2′-MOE PS; targets mir-131-2/mir-9] | – | – | – | – | – | significantly reduce the expression levels of 5 of 6 markers of adipocyte differentiation | – | – | –
6 | TGAGCTACAGTGCTTCATCTCA [ISIS 327901] (chemistry not given here) [uniform 2′-MOE PS; targets mir-143] | – | – | – | – | – | significantly reduce the expression levels of 5 of 6 markers of adipocyte differentiation | dose responsive reduction of expression of all five markers of differentiation | more effective | –
7 | TGAGCTACAGTGCTTCATCTCA [ISIS 340927] (chemistry not given here) [5-10-7 2′-MOE gapmer PS; targets mature mir-143] | – | – | – | – | – | – | – | – | reduced expression of the adipocyte differentiation markers

Source: US8178506B2, “Oligomeric compounds and compositions for use in modulation of small non-coding RNAs” (Regulus Therapeutics Inc., priority 2003, dated 2012)
